Reference: US20230151025A1, “SUBSTITUTED THIAZOLOPYRIDINES, SALTS THEREOF AND THEIR USE AS HERBICIDALLY ACTIVE SUBSTANCES” (Bayer Aktiengesellschaft, priority 2020, published 2023)

What was measured:
Assay type in all cases: in vivo
Setaria viridis (SETVI) [1] = assay: Herbicidal post-emergence action (B), 1280 g/ha; settings: rated visually after about 3 weeks vs untreated controls
How it was run: (§1)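 Percent activity is a visual score taken about 3 weeks after treatment, relative to untreated plants, where 100% means the plants died and 0% means no difference from controls. Plants were sprayed on green parts at the one-leaf stage with an aqueous suspension or emulsion containing 0.5% additive at 600 L/ha.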

[2] = test system: Echinochloa crus-galli (ECHCG); assay: Herbicidal post-emergence action (B), 1280 g/ha; settings: rated visually after about 3 weeks vs untreated controls
How it was run: as §1

Poa annua (POAAN) [3] = assay: Herbicidal post-emergence action (B), 1280 g/ha; settings: rated visually after about 3 weeks vs untreated controls
How it was run: as §1

Lolium rigidum (LOLRI) [4] = assay: Herbicidal post-emergence action (B), 1280 g/ha; settings: one-leaf stage, rated after about 3 weeks vs untreated controls, 100% activity = the plants have died, 0% = like control plants
How it was run: as §1

[5] = test system: Amaranthus retroflexus (AMARE); assay: Herbicidal post-emergence action (B), 1280 g/ha; settings: rated visually after about 3 weeks vs untreated controls
How it was run: as §1

Stellaria media (STEME) [6] = assay: Herbicidal post-emergence action (B), 1280 g/ha
How it was run: as §1

Setaria viridis (SETVI) [7] = assay: Herbicidal pre-emergence action (A), 1280 g/ha; settings: visual grading after ca. 3 weeks vs untreated controls
How it was run: (§2)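 Pre-emergence soil-surface spray, 600 l/ha water, 0.5% additive, WP or EC formulation. Sandy loam, double sowing per pot, greenhouse under optimum growth. Visual % damage at ~3 wk vs untreated; 100% = plants died off.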

[8] = test system: Echinochloa crus-galli (ECHCG); assay: Herbicidal pre-emergence action (A), 1280 g/ha; settings: visual grading after ca. 3 weeks vs untreated controls, 100% = plants have died off, 0% = as control plants
How it was run: as §2

[9] = test system: Matricaria inodora (MATIN); assay: Herbicidal pre-emergence action (A), 1280 g/ha; settings: visual grading after ca. 3 weeks vs untreated controls
How it was run: as §2

Poa annua (POAAN) [10] = assay: Herbicidal pre-emergence action (A), 1280 g/ha; settings: visual grading after ca. 3 weeks vs untreated controls, 100% = plants have died off, 0% = as control plants
How it was run: as §2

Lolium rigidum (LOLRI) [11] = assay: Herbicidal pre-emergence action (A), 1280 g/ha; settings: visual grading after ca. 3 weeks vs untreated controls, 100% = plants have died off, 0% = as control plants
How it was run: as §2

[12] = test system: Amaranthus retroflexus (AMARE); assay: Herbicidal pre-emergence action (A), 1280 g/ha; settings: visual grading after ca. 3 weeks vs untreated controls
How it was run: as §2

Stellaria media (STEME) [13] = assay: Herbicidal pre-emergence action (A), 1280 g/ha; settings: visual grading after ca. 3 weeks vs untreated controls
How it was run: as §2

[14] = test system: Digitaria sanguinalis (DIGSA); assay: Herbicidal pre-emergence action (C), 320 g/ha; settings: ca. 3 weeks
How it was run: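 Weed and crop seeds sown in sandy loam; WP or EC formulations applied pre-emergence to the soil surface as aqueous suspension/emulsion with 0.5% additive at 600 l water/ha. Greenhouse-grown under optimum conditions; damage visually scored after ca. 3 weeks versus untreated controls (0% = as control, 100% = plants dead).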

Lolium rigidum (LOLRI) [15] = assay: Herbicidal pre-emergence action (C), 320 g/ha; settings: ca. 3 weeks
How it was run: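 Pre-emergence greenhouse test: visual damage rating at about 3 weeks relative to untreated plants, 100% meaning death and 0% no effect. Compounds, as wettable powders or emulsifiable concentrates with 0.5% additive, were applied at 320 g/ha (600 l water/ha) onto soil covering seeds sown in sandy loam.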

[16] = test system: Digitaria sanguinalis (DIGSA); assay: Herbicidal post-emergence action (B), 1280 g/ha; settings: rated visually after about 3 weeks vs untreated controls
How it was run: as §1

Veronica persica (VERPE) [17] = assay: Herbicidal post-emergence action (B), 1280 g/ha
How it was run: as §1

[18] = test system: Abutilon theophrasti (ABUTH); assay: Herbicidal post-emergence action (B), 1280 g/ha; settings: rated visually after about 3 weeks vs untreated controls
How it was run: as §1

[19] = test system: Kochia scoparia (KCHSC; Bassia scoparia); assay: Herbicidal post-emergence action (B), 1280 g/ha
How it was run: as §1

[20] = test system: Alopecurus myosuroides (ALOMY); assay: Herbicidal post-emergence action (B), 1280 g/ha; settings: rated visually after about 3 weeks vs untreated controls
How it was run: as §1

[21] = test system: Digitaria sanguinalis (DIGSA); assay: Herbicidal pre-emergence action (A), 1280 g/ha; settings: visual grading after ca. 3 weeks vs untreated controls, 100% = plants have died off, 0% = as control plants
How it was run: as §2

Veronica persica (VERPE) [22] = assay: Herbicidal pre-emergence action (A), 1280 g/ha; settings: visual grading after ca. 3 weeks vs untreated controls
How it was run: as §2

[23] = test system: Kochia scoparia (KCHSC; Bassia scoparia); assay: Herbicidal pre-emergence action (A), 1280 g/ha; settings: visual grading after ca. 3 weeks vs untreated controls
How it was run: as §2

[24] = test system: Alopecurus myosuroides (ALOMY); assay: Herbicidal pre-emergence action (A), 1280 g/ha; settings: visual grading after ca. 3 weeks vs untreated controls, 100% = plants have died off, 0% = as control plants
How it was run: as §2

[25] = test system: Abutilon theophrasti (ABUTH); assay: Herbicidal pre-emergence action (A), 1280 g/ha; settings: visual grading after ca. 3 weeks vs untreated controls, 100% = plants have died off, 0% = as control plants
How it was run: as §2

Fc1ccccc1-c1ccc2scnc2n1 [Example I-036, 5-(2-fluorophenyl)thiazolo[4,5-b]pyridine]
herbicidal activity SETVI (Setaria viridis (SETVI) [1]): 100%
herbicidal activity ECHCG [2]: 100%
herbicidal activity POAAN (Poa annua (POAAN) [3]): 100%
LOLRI, activity rated visually (%) (Lolium rigidum (LOLRI) [4]): 100%
herbicidal activity AMARE [5]: 100%
herbicidal effect STEME (Stellaria media (STEME) [6]): 100%
herbicidal effect SETVI (Setaria viridis (SETVI) [7]): 100%
ECHCG, herbicidal effect in percent (%) [8]: 100%
herbicidal effect MATIN [9]: 90%
POAAN, herbicidal effect in percent (%) (Poa annua (POAAN) [10]): 100%
LOLRI, herbicidal effect in percent (%) (Lolium rigidum (LOLRI) [11]): 100%
herbicidal effect AMARE [12]: 90%
herbicidal effect STEME (Stellaria media (STEME) [13]): 90%
herbicidal effect DIGSA [14]: 100%
herbicidal effect LOLRI (Lolium rigidum (LOLRI) [15]): 100%

CCc1cc2scnc2nc1-c1ccc(F)cc1F [Example I-030]
herbicidal activity DIGSA [16]: 100%
herbicidal activity SETVI (Setaria viridis (SETVI) [1]): 90%
herbicidal effect VERPE (Veronica persica (VERPE) [17]): 90%
herbicidal activity ECHCG [2]: 100%
herbicidal activity ABUTH [18]: 100%
herbicidal effect KCHSC [19]: 100%
herbicidal activity POAAN (Poa annua (POAAN) [3]): 100%
LOLRI, activity rated visually (%) (Lolium rigidum (LOLRI) [4]): 90%
herbicidal activity ALOMY [20]: 90%
herbicidal activity AMARE [5]: 100%
herbicidal effect STEME (Stellaria media (STEME) [6]): 90%
DIGSA, herbicidal effect in percent (%) [21]: 90%
herbicidal effect SETVI (Setaria viridis (SETVI) [7]): 100%
herbicidal effect VERPE (Veronica persica (VERPE) [22]): 100%
ECHCG, herbicidal effect in percent (%) [8]: 100%
herbicidal effect MATIN [9]: 100%
herbicidal effect KCHSC [23]: 100%
POAAN, herbicidal effect in percent (%) (Poa annua (POAAN) [10]): 100%
LOLRI, herbicidal effect in percent (%) (Lolium rigidum (LOLRI) [11]): 100%
ALOMY, herbicidal effect in percent (%) [24]: 100%
herbicidal effect AMARE [12]: 90%
herbicidal effect STEME (Stellaria media (STEME) [13]): 90%
herbicidal effect DIGSA [14]: 100%
herbicidal effect LOLRI (Lolium rigidum (LOLRI) [15]): 100%

CCc1cc2scnc2nc1-c1ccccc1 [Example I-051]
herbicidal activity DIGSA [16]: 100%
herbicidal activity SETVI (Setaria viridis (SETVI) [1]): 100%
herbicidal effect VERPE (Veronica persica (VERPE) [17]): 100%
herbicidal activity ECHCG [2]: 100%
herbicidal activity ABUTH [18]: 90%
herbicidal effect KCHSC [19]: 90%
herbicidal activity POAAN (Poa annua (POAAN) [3]): 100%
LOLRI, activity rated visually (%) (Lolium rigidum (LOLRI) [4]): 100%
herbicidal activity ALOMY [20]: 100%
herbicidal activity AMARE [5]: 100%
herbicidal effect STEME (Stellaria media (STEME) [6]): 100%
DIGSA, herbicidal effect in percent (%) [21]: 100%
herbicidal effect SETVI (Setaria viridis (SETVI) [7]): 100%
herbicidal effect VERPE (Veronica persica (VERPE) [22]): 90%
ECHCG, herbicidal effect in percent (%) [8]: 100%
ABUTH, herbicidal effect in percent (%) [25]: 90%
herbicidal effect MATIN [9]: 90%
herbicidal effect KCHSC [23]: 90%
POAAN, herbicidal effect in percent (%) (Poa annua (POAAN) [10]): 100%
LOLRI, herbicidal effect in percent (%) (Lolium rigidum (LOLRI) [11]): 100%
ALOMY, herbicidal effect in percent (%) [24]: 100%
herbicidal effect STEME (Stellaria media (STEME) [13]): 90%
herbicidal effect DIGSA [14]: 100%
herbicidal effect LOLRI (Lolium rigidum (LOLRI) [15]): 100%

Cc1cc2scnc2nc1-c1ccc(F)cc1F [Example I-122]
herbicidal activity DIGSA [16]: 100%
herbicidal activity SETVI (Setaria viridis (SETVI) [1]): 90%
herbicidal effect VERPE (Veronica persica (VERPE) [17]): 100%
herbicidal activity ECHCG [2]: 90%
herbicidal activity ABUTH [18]: 90%
herbicidal effect KCHSC [19]: 100%
herbicidal activity POAAN (Poa annua (POAAN) [3]): 100%
herbicidal activity ALOMY [20]: 100%
herbicidal activity AMARE [5]: 100%
herbicidal effect STEME (Stellaria media (STEME) [6]): 100%
DIGSA, herbicidal effect in percent (%) [21]: 100%
herbicidal effect SETVI (Setaria viridis (SETVI) [7]): 100%
herbicidal effect VERPE (Veronica persica (VERPE) [22]): 100%
ECHCG, herbicidal effect in percent (%) [8]: 100%
ABUTH, herbicidal effect in percent (%) [25]: 100%
herbicidal effect MATIN [9]: 100%
herbicidal effect KCHSC [23]: 100%
POAAN, herbicidal effect in percent (%) (Poa annua (POAAN) [10]): 100%
LOLRI, herbicidal effect in percent (%) (Lolium rigidum (LOLRI) [11]): 100%
ALOMY, herbicidal effect in percent (%) [24]: 100%
herbicidal effect AMARE [12]: 100%
herbicidal effect STEME (Stellaria media (STEME) [13]): 100%
herbicidal effect DIGSA [14]: 100%
herbicidal effect LOLRI (Lolium rigidum (LOLRI) [15]): 100%

COc1ccccc1-c1nc2ncsc2cc1C [Example I-124]
herbicidal activity DIGSA [16]: 100%
herbicidal activity SETVI (Setaria viridis (SETVI) [1]): 90%
herbicidal effect VERPE (Veronica persica (VERPE) [17]): 100%
herbicidal activity ECHCG [2]: 90%
herbicidal activity ABUTH [18]: 100%
herbicidal effect KCHSC [19]: 100%
herbicidal activity POAAN (Poa annua (POAAN) [3]): 100%
herbicidal activity ALOMY [20]: 100%
herbicidal activity AMARE [5]: 90%
herbicidal effect STEME (Stellaria media (STEME) [6]): 100%
DIGSA, herbicidal effect in percent (%) [21]: 100%
herbicidal effect SETVI (Setaria viridis (SETVI) [7]): 100%
herbicidal effect VERPE (Veronica persica (VERPE) [22]): 100%
ECHCG, herbicidal effect in percent (%) [8]: 100%
ABUTH, herbicidal effect in percent (%) [25]: 100%
herbicidal effect MATIN [9]: 100%
herbicidal effect KCHSC [23]: 100%
POAAN, herbicidal effect in percent (%) (Poa annua (POAAN) [10]): 100%
LOLRI, herbicidal effect in percent (%) (Lolium rigidum (LOLRI) [11]): 100%
ALOMY, herbicidal effect in percent (%) [24]: 100%
herbicidal effect AMARE [12]: 100%
herbicidal effect STEME (Stellaria media (STEME) [13]): 100%
herbicidal effect DIGSA [14]: 100%
herbicidal effect LOLRI (Lolium rigidum (LOLRI) [15]): 100%

Cc1cc2scnc2nc1-c1ccccc1Cl [Example I-045]
herbicidal activity SETVI (Setaria viridis (SETVI) [1]): 100%
herbicidal effect VERPE (Veronica persica (VERPE) [17]): 90%
herbicidal activity ECHCG [2]: 100%
herbicidal activity ABUTH [18]: 90%
herbicidal effect KCHSC [19]: 90%
herbicidal activity POAAN (Poa annua (POAAN) [3]): 100%
LOLRI, activity rated visually (%) (Lolium rigidum (LOLRI) [4]): 90%
herbicidal activity ALOMY [20]: 100%
herbicidal activity AMARE [5]: 90%
herbicidal effect STEME (Stellaria media (STEME) [6]): 100%
DIGSA, herbicidal effect in percent (%) [21]: 100%
herbicidal effect SETVI (Setaria viridis (SETVI) [7]): 100%
herbicidal effect VERPE (Veronica persica (VERPE) [22]): 100%
ECHCG, herbicidal effect in percent (%) [8]: 100%
ABUTH, herbicidal effect in percent (%) [25]: 90%
herbicidal effect MATIN [9]: 100%
herbicidal effect KCHSC [23]: 100%
POAAN, herbicidal effect in percent (%) (Poa annua (POAAN) [10]): 100%
LOLRI, herbicidal effect in percent (%) (Lolium rigidum (LOLRI) [11]): 100%
ALOMY, herbicidal effect in percent (%) [24]: 100%
herbicidal effect AMARE [12]: 100%
herbicidal effect STEME (Stellaria media (STEME) [13]): 100%
herbicidal effect DIGSA [14]: 100%
herbicidal effect LOLRI (Lolium rigidum (LOLRI) [15]): 100%
